From publication PMC10288505, “Photoswitchable Calixarene Activators for Controlled Peptide Transport across Lipid Membranes” (Journal of the American Chemical Society, 2023) come the findings set out here.

Where “and” joins values, the source holds several entries; their conditions need not be identical. Identical values can stand only once. Like-named read-outs stand apart in the source and are kept apart here.

This test is described as follows: Carboxyfluorescein (CF) dye efflux assay, counterion-activated peptide transport. The conditions noted are these: for TE (transport efficiency), R6 transport / TE (transport efficiency), R8 transport: TE = Ymax × pEC50/f, pEC50 = −log EC50 (in mM), f = 20.6; for TE (transport efficiency), R6 transport: R6 4 μM; for TE (transport efficiency), R6 transport / TE (transport efficiency), R8 transport / Ymax (maximal CF release relative to Triton X-100 lysis), R6 transport / EC50 / Ymax (maximal CF release relative to Triton X-100 lysis), R8 transport: EYPC-LUV⊃CF 15 μM; for TE (transport efficiency), R8 transport: R8 4 μM; for Ymax (maximal CF release relative to Triton X-100 lysis), R6 transport / EC50 / Ymax (maximal CF release relative to Triton X-100 lysis), R8 transport: 5 mM phosphate buffer pH 7.3, Hill fit, triplicate; for EC50 / Activation of CF release in the presence of peptide R4: 50 mM CF inside; for EC50: fluorescence; for Activation of CF release in the presence of peptide R4: R4 5 µM, EYPC-LUV⊃CF 15 µM. The test is classed as biochemical. The protocol:
Dynamic light scattering (DLS) control experiments also confirmed liposome integrity under the experimental conditions employed in the different membrane transport assays, which ruled out potential membrane disruption interferences (Figure S34). Established dye efflux assays were performed using the carboxyfluorescein (CF) dye encapsulated at self-quenching concentrations in egg phosphatidylcholine large unilamellar vesicles (EYPC-LUV⊃CF).[26],[27],[29],[45] In these experiments, the fractional release of trapped CF (or fractional transport activity, Y), triggered by the addition of counterion activators and peptides, is monitored by time-resolved fluorescence spectroscopy and calibrated by the addition of Triton X-100 (Figure S35).
The studies were performed with both 1 and 2 in the E and Z configurations in the presence of fixed concentrations of liposomes and cationic peptides. […] Likewise, the addition of peptides alone or nonbinding anionic peptides in the presence of calixarene activators also results in unmodified fluorescence signal, confirming that the formation of the calixarene–peptide complex is critical to activate the transport process. […] This approach retrieves the Ymax (i.e., maximal CF release relative to liposome lysis after the addition of Triton X-100) and EC50 (i.e., the effective counterion activator concentration required to reach Ymax/2) as the relevant parameters to measure the efficiency of the counterion activators.
10 mg of L-α-phosphatidylcholine (95%) (Egg, Chicken) were dissolved in 1 ml of chloroform. The solution was evaporated under a nitrogen stream, under rotation, to form a thin lipid film in the bottom of the flask. This film was left to dry under vacuum for a minimum of 1h. After drying the maximum of the solvent from the solution, 1 ml of the solution to incorporate (CF 50 mM in 5 mM phosphate buffer for EYPC-LUV⊃CF and only phosphate buffer 5 mM pH 7.4, for the LUVs with no encapsulation) was added to the thin film and the lipids were left to resuspend under agitation, in a 40 °C bath, for 30 min. The resuspended lipid mixture was then submitted to 10 freeze-thaw cycles and extruded 23 times through a 100 nm membrane, to obtain uniform, monodisperse liposomes with high encapsulation of the added solution. The liposomes were then separated from the molecules that were not encapsulated by size-exclusion chromatography, with Sephadex G25 (V = 37 ml), obtaining two fractions, one with high turbidity and a clear one, corresponding to the encapsulated and free sensor, respectively. The samples were then analyzed by Dynamic Light Scattering (DLS) to determine the average size of the liposomes in solution and their size distribution.
All assays were done up to 48h after the preparation of the vesicles to ensure their integrity and majority of CF still encapsulated.
EC50 and Ymax calculation. For the measurement of 1 and 2’s effectiveness as a counterion activators of polyarginine transport, dye efflux assays were executed at several counterion activator concentrations, while maintaining the concentration of peptide and LUV fixed as indicated in the respective figures.
For the dye efflux assays, CF emission was followed throughout the assay, with consecutive additions of the elements of the solution – the initial solution presented only the vesicles at a fixed concentration. A counterion activator aliquot is then added according to the concentration to be tested and the emission is measured to confirm that CF remains encapsulated; some counterion activators can act as detergents at sufficient concentrations. Finally, the peptide in question is added and fluorescence spectra are measured […]
until the emission stabilizes and a maximum of release is reached. If the counterion activator has the capacity to activate the transport, CF should be co-transported to the exterior of the liposome with the influx of the counterion-peptide complex. Finally, Triton X-100 is added to the solution to dissolve the […]

Setting [1] is: peptide R6 4 μM, read-out: EC50 (effective counterion activator concentration to reach Ymax/2), R6 transport.
Setting [2] is: peptide R8 4 μM, read-out: EC50 (effective counterion activator concentration to reach Ymax/2), R8 transport.

Turning to `O=S(=O)([O-])c1cc2c(O)c(c1)Cc1cc(S(=O)(=O)[O-])cc(c1O)Cc1cc(S(=O)(=O)[O-])cc(c1OCCCCCCOc1ccc(/N=N/c3ccccc3)cc1)Cc1cc(S(=O)(=O)[O-])cc(c1O)C2.[Li+].[Li+].[Li+].[Li+]` [E-1], the “TE (transport efficiency), R6 transport” value is given as 19.4 ± 0.2 and the “TE (transport efficiency), R8 transport” value came out at 20.3 ± 0.4. For the same molecule, the “Ymax (maximal CF release relative to Triton X-100 lysis), R6 transport” value (peptide R6 4 μM) is 96% and 96 ± 1%. For the same molecule, under setting [1], the EC50 came out at 72 ± 5 nM. Besides, the “Ymax (maximal CF release relative to Triton X-100 lysis), R8 transport” value (peptide R8 4 μM) is 91 ± 2%. Under setting [2], the EC50 is 24 ± 2 nM.

Turning to `CCCCc1ccc(/N=N/c2ccc(OCCCOc3c4cc(S(=O)(=O)[O-])cc3Cc3cc(S(=O)(=O)[O-])cc(c3O)Cc3cc(S(=O)(=O)[O-])cc(c3O)Cc3cc(S(=O)(=O)[O-])cc(c3O)C4)cc2)cc1.[Li+].[Li+].[Li+].[Li+]` [E-2], the “TE (transport efficiency), R6 transport” value is 20.2 ± 0.2 and the “TE (transport efficiency), R8 transport” value turned out to be 22.2 ± 0.3. In addition, the “Ymax (maximal CF release relative to Triton X-100 lysis), R6 transport” value (peptide R6 4 μM) was 96% and 96 ± 1%. For the same molecule, the EC50 under setting [1] was determined as 45 ± 2 nM. Also, the “Ymax (maximal CF release relative to Triton X-100 lysis), R8 transport” value (peptide R8 4 μM) is 93 ± 2%. Under setting [2], the EC50 is 11 ± 1 nM.

With `O=S(=O)([O-])c1cc2c(O)c(c1)Cc1cc(S(=O)(=O)[O-])cc(c1O)Cc1cc(S(=O)(=O)[O-])cc(c1OCCCCCCOc1ccc(/N=N\c3ccccc3)cc1)Cc1cc(S(=O)(=O)[O-])cc(c1O)C2.[Li+].[Li+].[Li+].[Li+]` [Z-1], the “Activation of CF release in the presence of peptide R4” value was “no activation was observed”; the “TE (transport efficiency), R6 transport” value is on record as 10.8 ± 0.8; the “TE (transport efficiency), R8 transport” value amounted to 13.3 ± 0.4. In addition, under “peptide R6 4 μM”, the “Ymax (maximal CF release relative to Triton X-100 lysis), R6 transport” value is 63% and 63 ± 5%. Moreover, the EC50 under setting [1] came to 291 ± 32 nM. Further, where the note is “peptide R8 4 μM”, the “Ymax (maximal CF release relative to Triton X-100 lysis), R8 transport” value was found to be 69 ± 2%. In addition, the EC50 under setting [2] was found to be 99 ± 3 nM.

As to `CCCCc1ccc(/N=N\c2ccc(OCCCOc3c4cc(S(=O)(=O)[O-])cc3Cc3cc(S(=O)(=O)[O-])cc(c3O)Cc3cc(S(=O)(=O)[O-])cc(c3O)Cc3cc(S(=O)(=O)[O-])cc(c3O)C4)cc2)cc1.[Li+].[Li+].[Li+].[Li+]` [Z-2], the “Activation of CF release in the presence of peptide R4” value was “no activation was observed”; the “TE (transport efficiency), R6 transport” value amounted to 16.6 ± 0.3; the “TE (transport efficiency), R8 transport” value amounted to 20.8 ± 0.4. For the same molecule, the “Ymax (maximal CF release relative to Triton X-100 lysis), R6 transport” value (peptide R6 4 μM) was 94% and 94 ± 2%. In addition, under setting [1], the EC50 amounted to 227 ± 17 nM. Under “peptide R8 4 μM”, the “Ymax (maximal CF release relative to Triton X-100 lysis), R8 transport” value turned out to be 94 ± 2%. Under setting [2], the EC50 amounted to 30 ± 4 nM.
